Molecules are shown by their SMILES.

One test deals with T1, hMAO-B (Homo sapiens, UniProt P27338).
T1 construct: purchased Sigma Aldrich M7441; host or cells: baculovirus infected insect cells (BTI-TN-5B1-4)
T1 sequence (P27338 1-520): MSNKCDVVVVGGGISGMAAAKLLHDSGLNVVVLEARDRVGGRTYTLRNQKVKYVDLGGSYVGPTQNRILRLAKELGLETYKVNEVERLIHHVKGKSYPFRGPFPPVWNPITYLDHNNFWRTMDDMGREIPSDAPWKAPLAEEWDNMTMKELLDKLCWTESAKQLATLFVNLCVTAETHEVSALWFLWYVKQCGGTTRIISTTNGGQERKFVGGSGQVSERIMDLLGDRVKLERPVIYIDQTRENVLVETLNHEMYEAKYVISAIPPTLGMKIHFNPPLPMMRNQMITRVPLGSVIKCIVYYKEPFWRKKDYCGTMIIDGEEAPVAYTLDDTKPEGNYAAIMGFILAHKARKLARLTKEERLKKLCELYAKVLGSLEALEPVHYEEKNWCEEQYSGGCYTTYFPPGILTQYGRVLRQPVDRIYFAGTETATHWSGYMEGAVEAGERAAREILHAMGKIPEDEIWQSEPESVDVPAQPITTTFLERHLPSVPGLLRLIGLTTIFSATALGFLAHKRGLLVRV
The experiment in a line: Reversibility assay (100-fold dilution). The test is classed as biochemical. The note with it: hMAO-B at 100-fold final concentration incubated 15 min at 37 °C with inhibitor at 10-fold the IC50, then diluted 100-fold; monitored 30 min.
Description: The final concentrations of all of the reagents and MAO-B were the same as in the assay described above. The reaction was monitored for 30 min. Control experiments were carried out in the same manner, where the inhibitor solution was replaced by DMSO.
Consider `C#CCCCN1CCC(/C=C/c2ccc(F)cc2)CC1` [drawing 195], for which the “Activity of the enzyme after 100-fold dilution (in percentage ±SD)” value is listed as 74.01 ±2.76 percentage. Regarding `C#CCN1CCCC(Cc2ccc(F)cc2)CC1` (stereo not drawn) [drawing 196], the “Activity of the enzyme after 100-fold dilution (in percentage ±SD)” value is reported as 5.55 ±0.25 percentage. `C#CCCN1CCC(/C=C/c2ccc(F)cc2)CC1` [drawing 194]: the “Activity of the enzyme after 100-fold dilution (in percentage ±SD)” value is 94.91 ±2.52 percentage.

For the next test, the target named is T1, hMAO-B. The experiment in a line: Inhibition assay using human recombinant MAO-B (fluorimetric Amplex Red assay). To be noted: 1 mM p-tyramine, 15 min pre-incubation at 37 °C, pH 7.4, Amplex Red/horseradish peroxidase, read-out: hMAO-B IC50 [nM] ±SEM. The test is classed as biochemical.
Description: The inhibitory activity of the compounds was evaluated by their effects on the production of hydrogen peroxide (H2O2) from p-tyramine, a nonspecific substrate for both hMAO isoforms. The production of the H2O2 was detected using Amplex Red reagent in the presence of horseradish peroxidase, where a highly sensitive fluorescent product, resorufin, is produced at stoichiometric amounts. Recombinant human microsomal hMAO enzymes expressed in baculovirus infected insect cells (BTI-TN-5B1-4), horse-radish peroxidase (type II, lyophilized powder), and p-tyramine hydrochloride were purchased from Sigma Aldrich.
The production of resorufin was quantified on the basis of the fluorescence generated (λex= 530 nm, λem = 590 nm) at 37 °C over a period of 20 min, during which time the fluorescence increase linearly. For control experiments, DMSO was used instead of the appropriate dilutions of the compounds in DMSO. To determine the blank value (b), phosphate-buffered solution replaced the enzyme solution. The initial velocities were calculated from the trends obtained, with each measurement carried out in duplicate. The inhibitory potencies are expressed as the residual activities (RA = (vi-b) / (vo-b), where vi is the velocity in the presence of the test compounds, and v0 the control velocity in the presence of DMSO. The IC50 values were obtained by plotting residual enzyme activities against applied inhibitor concentration, with the experimental data fitted to a Hill four parameter equation (Equation (1)) using in-house python script and Gnuplot software. Y = Min + (Max−Min)/(1+10^(∧)((LogIC50−X)×Hillcoefficient)) [formula] where X represent logarithm of inhibitor concentration, and Y the residual activity.
The capacity of the test compounds to react directly with Amplex Red was determined by adding these compounds to a solution containing all of the components except the MAO isoenzyme.
As for `C#CCN1CCCC(CCc2ccc(F)cc2)CC1` (stereo not drawn), the IC50 (commonly the concentration that gives 50% inhibition) was 250 ± 42.4 nM. Take `C#CCN1CCC(CCc2ccc(Br)cc2)CC1`: the half-maximal inhibitory concentration (IC50) was determined as 1440 ± 140 nM. Turning to `C#CCN1CCC(=Cc2ccc(F)cc2)CC1`, the half-inhibitory concentration (IC50) came to 48800 ± 3240 nM. With `C#CCCN1CCC(CCc2ccc(F)cc2)CC1`, the concentration for half-maximal inhibition (IC50) amounted to 1700 ± 292 nM.

As to `C#CCCCN1CCC(/C=C/c2ccc(F)cc2)CC1` [drawing 177], the IC50 came out at 163 ± 17 nM. For `C#CCCN1CCC(/C=C/c2ccc(F)cc2)CC1` [drawing 173], the IC50 turned out to be 475 ± 28.6 nM. In the case of `C#CCN1CCC(/C=C/c2ccc(F)cc2)C1` (stereo not drawn), the half-inhibitory concentration (IC50) was determined as 17400 ± 2040 nM. For `C#CCN1CCCC(Cc2ccc(F)cc2)CC1` (stereo not drawn) [drawing 183], the IC50 came out at 59.2 ± 6 nM.

Regarding `C#CCN1CCC(/C=C/c2ccccn2)CC1`, the IC50 came to 730 ± 85.6 nM.

The record behind these values is patent EP3426634B1, “DISUBTITUTED AZETIDINES, PYRROLIDINES, PIPERIDINES AND AZEPANES AS INHIBITORS OF MONOAMINE OXIDASE B FOR THE TREATMENT OF NEURODEGENERATIVE DISEASES” (University of Ljubljana, priority 2016, dated 2018).
